Experimental data from patent US10206398B2, “Five-membered C-N-attached aryl sulphide and aryl sulphoxide derivatives as pesticides” (BAYER CROPSCIENCE AKTIENGESELLSCHAFT, priority 2014, dated 2019).
Where “and” joins values, the source holds several entries; their conditions need not be identical. Equal values may be shown once. Read-outs that look alike come from different tables or passages of the source.

What was measured:
[1] = log P determination by HPLC on reversed-phase columns (C 18), analogous to OECD Guideline 117; assay type: physicochemical; settings: for logP[a]: method [a]; for logP[b]: method [b]; for chromatographic logP: reversed-phase HPLC column (C 18)
Protocol: The log P values were determined analogously to OECD Guideline 117 (EC Directive 92/69/EEC) by HPLC (high-performance liquid chromatography) using reversed-phase columns (C 18), by the following methods: [a] The LC-MS determination in the acidic range was effected at pH 2.7 with 0.1% aqueous formic acid and acetonitrile (contains 0.1% formic acid) as eluents; linear gradient from 10% acetonitrile to 95% acetonitrile. log P[a] is also referred to as log P(HCOOH). [b] LC-MS determination in the neutral range was effected at pH 7.8 with 0.001 molar aqueous ammonium hydrogencarbonate solution and acetonitrile as eluents; linear gradient from 10% acetonitrile to 95% acetonitrile. log P[b] is also referred to as log P(neutral). Calibration is effected with solutions of a homologous series of unbranched alkan-2-ones (having 3 to 16 carbon atoms) with known log P values (log P values determined on the basis of the retention times by linear interpolation between two successive alkanones).

Tetranychus urticae = Tetranychus urticae - spray test, OP-resistant (bean leaf discs, 6 days); assay type: in vivo; settings: after 6 days; for pest or weed control at 500 g/ha: Tetranychus urticae, foliar, 144 h, read-out: efficacy (spider mites killed)
Protocol: 5. Tetranychus urticae—Spray Test, OP-Resistant
Solvent: 78.0 parts by weight of acetone
• 1.5 parts by weight of dimethylformamide Emulsifier: alkylaryl polyglycol ether
To produce a suitable preparation of active compound, 1 part by weight of active compound is dissolved using the stated parts by weight of solvent and made up with water containing an emulsifier concentration of 1000 ppm until the desired concentration is attained. To produce further test concentrations, the preparation is diluted with emulsifier-containing water.
Discs of bean leaves (Phaseolus vulgaris) infested with all stages of the greenhouse red spider mite (Tetranychus urticae) are sprayed with an active compound preparation of the desired concentration.
After 6 days, the efficacy in % is determined. 100% means that all the spider mites have been killed; 0% means that no spider mites have been killed.

[2] = pH 2.7, HPLC, acidic range, pH 2.7, 0.1% aqueous formic acid and acetonitrile, read-out: log P(HCOOH)
[3] = pH 2.7, method [a], read-out: logP[a]
[4] = pH 7.8, HPLC, neutral range, pH 7.8, 0.001 molar aqueous ammonium hydrogencarbonate and acetonitrile, read-out: log P(neutral)
[5] = pH 7.8, method [b], read-out: logP[b]

| Compound | logP[a] [1] | logP[b] [1] | efficacy (spider mites killed) (Tetranychus urticae; 500 g/ha) | other results |
| --- | --- | --- | --- | --- |
| Cc1cc(F)c(N2C(=O)C(C)N(C(=O)NC(C)C)C2=O)cc1SCC(F)(F)F (stereo not drawn) [compound 26] | 3.78 | 3.68 | 100% | – |
| Cc1cc(Cl)c(N2C(=O)CN(C(=O)NCC(C)C)C2=O)cc1SCC(F)(F)F [compound 52] | 3.93 | 3.78 | 100% | – |
| Cc1cc(C)c(N2C(=O)CN(C(=O)NC(C)(C)C)C2=O)cc1SCC(F)(F)F [compound 33] | 3.86 | 3.89 | 100% | – |
| Cc1cc(F)c(N2C(=O)CN(C(=O)NC3CC3)C2=O)cc1[S+]([O-])CC(F)(F)F (stereo not drawn) [Ex. No. 3, N-Cyclopropyl-3-[2-fluoro-4-methyl-5-(2,2,2-trifluoroethylsulphinyl)phenyl]-2,4-dioxoimidazolidine-1-carboxamide] | – | – | – | chromatographic logP [1, 2]: 2.15; chromatographic logP [1, 3]: 2.15; chromatographic logP [1, 4]: 2.12; chromatographic logP [1, 5]: 2.12; pest or weed control at 500 g/ha (Tetranychus urticae; 500 g/ha): 100% |
| Cc1cc(F)c(N2C(=O)N(C(=O)NCC(F)(F)F)C(C)(C)C2=O)cc1[S+]([O-])CC(F)(F)F (racemic) [compound 85] | 3.07 | 3.05 | 100% | – |
| Cc1cc(F)c(N2C(=O)CN(C(=S)NCC(F)(F)F)C2=O)cc1SCC(F)(F)F [compound 102] | 3.71 | 3.84 | 100% | – |
| Cc1cc(F)c(N2C(=O)N(C(=O)NC3CC3)C(C)(C)C2=O)cc1[S+]([O-])CC(F)(F)F (stereo not drawn) [Ex. No. 84, N-Cyclopropyl-3-[2-fluoro-4-methyl-5-(2,2,2-trifluoroethylsulphinyl)phenyl]-5,5-dimethyl-2,4-dioxoimidazolidine-1-carboxamide] | – | – | – | chromatographic logP [1, 2]: 2.73; chromatographic logP [1, 3]: 2.73; chromatographic logP [1, 4]: 2.73; chromatographic logP [1, 5]: 2.73; pest or weed control at 500 g/ha (Tetranychus urticae; 500 g/ha): 100% |
| COCCNC(=O)N1CC(=O)N(c2cc(SCC(F)(F)F)c(C)cc2F)C1=O [compound 66] | 2.77 | 2.76 | 100% | – |
| Cc1cc(C)c(N2C(=O)CN(C(=O)NCC(C)C)C2=O)cc1SCC(F)(F)F [compound 34] | 3.80 | 3.69 | 100% | – |
| Cc1cc(F)c(N2C(=O)C(C)N(C(=O)NCC(C)C)C2=O)cc1SCC(F)(F)F (racemic) [compound 80] | 3.99 | 3.98 | 100% | – |
| Cc1cc(F)c(N2C(=O)CN(C(=O)N3CCN(C)CC3)C2=O)cc1SCC(F)(F)F [compound 123] | 2.5 | 1.51 | 100% | – |
| Cc1cc(F)c(N2C(=O)C(C)N(C(=O)NCc3ccccc3)C2=O)cc1[S+]([O-])CC(F)(F)F (mixture of isomers) [compound 90] | 3.12 | 3.05 | 100% | – |
| Cc1cc(F)c(N2C(=O)CNC2=O)cc1[S+]([O-])CC(F)(F)F (stereo not drawn) [IIb-1] | – | – | – | chromatographic logP [1, 2]: 1.33; chromatographic logP ([1]; pH 2.7, Table 3, HPLC, acidic range, pH 2.7, read-out: logP[a]): 1.33; chromatographic logP [1, 4]: 1.31; chromatographic logP ([1]; pH 7.8, Table 3, HPLC, neutral range, pH 7.8, read-out: logP[b]): 1.31; pest or weed control at 500 g/ha (Tetranychus urticae; 500 g/ha): 100% |
| Cc1cc(F)c(N2C(=O)N(C(=O)NCC(C)C)C(C)(C)C2=O)cc1SCC(F)(F)F [compound 76] | 4.51 | 4.42 | 100% and 90% | – |

Continued, in another order:

| logP[a] [1] | logP[b] [1] | Compound | efficacy (spider mites killed) (Tetranychus urticae; 500 g/ha) | other results |
| --- | --- | --- | --- | --- |
| 3.01 | 2.93 | Cc1cc(F)c(N2C(=O)CN(C(=O)NC(C)C)C2=S)cc1[S+]([O-])CC(F)(F)F (stereo not drawn) [compound 14] | 100% | – |
| 3.57 | 3.47 | Cc1cc(C)c([S+]([O-])CC(F)(F)F)cc1N1C(=O)CN(C(=O)Nc2cccc(CC(F)(F)F)c2)C1=O (racemic) [compound 97] | 90% | – |
| 4.51 | 4.38 | Cc1cc(Cl)c(N2C(=O)CN(C(=O)Nc3cccc(CC(F)(F)F)c3)C2=O)cc1SCC(F)(F)F [compound 58] | 100% | – |
| 3.39 | 3.46 | O=C(Nc1ccc(F)cc1)N1CC(=O)N(c2cc([S+]([O-])CC(F)(F)F)c(Cl)cc2Cl)C1=O (racemic) [compound 116] | 100% | – |
| 2.85 | 2.77 | Cc1cc(C)c([S+]([O-])CC(F)(F)F)cc1N1C(=O)CN(C(=O)NCc2ccccc2)C1=O (racemic) [compound 98] | 90% | – |
| 2.90 | 2.83 | Cc1cc(C)c([S+]([O-])CC(F)(F)F)cc1N1C(=O)CN(C(=O)NC(C)(C)C)C1=O (stereo not drawn) [compound 40] | 100% | – |
| 2.23 | 2.24 | CCNC(=O)N1CC(=O)N(c2cc([S+]([O-])CC(F)(F)F)c(C)cc2Cl)C1=O (stereo not drawn) [compound 64] | 100% | – |
| 2.95 | 2.91 | Cc1cc(Cl)c(N2C(=O)CN(C(=O)NCc3ccccc3)C2=O)cc1[S+]([O-])CC(F)(F)F (racemic) [compound 70] | 100% | – |
| 2.24 | 2.17 | Cc1cc(C)c([S+]([O-])CC(F)(F)F)cc1N1C(=O)CN(C(=O)NC2CC2)C1=O (stereo not drawn) [compound 60] | 100% | – |
| 2.14 | 2.12 | CCNC(=O)N1CC(=O)N(c2cc([S+]([O-])CC(F)(F)F)c(C)cc2C)C1=O (stereo not drawn) [compound 32] | 100% | – |
| 2.88 | 2.91 | O=C(NCC(F)(F)F)N1CC(=O)N(c2cc([S+]([O-])CC(F)(F)F)c(Cl)cc2Cl)C1=O (racemic) [compound 114] | 100% | – |
| 3.19 | 3.13 | CCNC(=O)N1CC(=O)N(c2cc(SCC(F)(F)F)c(C)cc2Cl)C1=O [compound 51] | 100% | – |
| 4.46 | 4.28 | Cc1cc(Cl)c(N2C(=O)CN(C(=O)Nc3cccc(Cl)c3)C2=O)cc1SCC(F)(F)F [compound 59] | 100% and 90% | – |
| 2.54 | 2.47 | Cc1cc(C)c([S+]([O-])CC(F)(F)F)cc1N1C(=O)CN(C(=O)NCC(F)(F)F)C1=O (stereo not drawn) [compound 61] | 100% | – |
| 1.75 | 1.78 | Cc1cc(F)c(N2C(=O)CN(C(=O)N(C)C)C2=O)cc1[S+]([O-])CC(F)(F)F (stereo not drawn) [compound 133] | 100% | – |
| 4.49 | 4.56 | O=C(Nc1cccc(Cl)c1)N1CC(=O)N(c2cc(SCC(F)(F)F)c(Cl)cc2Cl)C1=O [compound 109] | 90% | – |
| 3.91 | 3.99 | CC(C)CNC(=O)N1CC(=O)N(c2cc(SCC(F)(F)F)c(Cl)cc2Cl)C1=O [compound 105] | 100% | – |
| 3.37 | 3.33 | Cc1cc(C)c([S+]([O-])CC(F)(F)F)cc1N1C(=O)CN(C(=O)Nc2cccc(Cl)c2)C1=O (racemic) [compound 69] | – | efficacy (spider mites killed) (Tetranychus urticae; 100 g/ha): 90% |
